≈ marks a conversion by molar mass, not a printed value. Like-named read-outs stand apart in the source and are kept apart here.
Assays:
eight fungal species [1] = assay: checkerboard interaction with azoles, summary across the eight species; format: cell-based; details: geometric mean MIC in combination with azoles
Excerpt: Synergy between lipophilic FPPS inhibitors and azole antifungals was investigated by determining the fractional inhibitory concentration index (FICI) (Fig. 2; Table S1 Fig. S1) ([17]). […]. Derivatives PLA9 and 11, and PDA9, 11, and 12 antagonized azoles in C. albicans, C. neoformans, and C. deuterogattii, yet were largely synergistic in C. glabrata and S. cerevisiae. […].

Candida glabrata [2] = assay: MIC/MFC broth microdilution (CLSI); details: Nakaseomyces glabratus, CBS138;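 note: broth microdilution following CLSI M27-Ed4, MFC taken as the lowest drug level yielding no growth once MIC wells were subcultured on SDA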
Procedure: (§1) Antifungal susceptibility was determined by broth microdilution according to the CLSI guidelines described in M27-Ed4 ([16]). […] MFC was determined by back-plating drug-treated cultures from MIC broths onto SDA plates. The MFC was defined as the lowest concentration from which no colonies could be cultured.

Candida glabrata [3] = assay: checkerboard drug interaction (FICI, MICc);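 for all read-outs here: simplified diagonal checkerboard screen pairing antifungals with FPPS inhibitors, FICI calculated under the Loewe additivity model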; format: cell-based; details: C. glabrata; for INH FD (MIC-MICc fold decrease): fold decrease of inhibitor MIC
Procedure: (§2) Drug interactions between antifungals and FPPS inhibitors were investigated using a simplified checkerboard diagonal screening method ([45]). […] FICIs were determined according to the Loewe additivity model ([17]).

Trichophyton rubrum [4] = assay: MIC/MFC broth microdilution (CLSI); details: Trichophyton rubrum
Procedure: as §1

[5] = test system: Cryptococcus deuterogattii; assay: MIC/MFC broth microdilution (CLSI); details: Cryptococcus deuterogattii;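 note: broth microdilution per CLSI M27-Ed4. MFC is the lowest concentration yielding no colonies when MIC broths are subcultured onto SDA plates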
Procedure: as §1

Aspergillus fumigatus [6] = assay: checkerboard drug interaction (FICI, MICc); format: cell-based;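 note: simplified diagonal checkerboard screen pairing antifungals with FPPS inhibitors against Aspergillus fumigatus, with FICI calculated under the Loewe additivity model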
Procedure: as §2

Aspergillus fumigatus [7] = assay: MIC/MFC broth microdilution (CLSI); details: ATCC204305
Procedure: as §1

Saccharomyces cerevisiae [8] = assay: MIC/MFC broth microdilution (CLSI); format: cell-based; details: Saccharomyces cerevisiae S288c
Procedure: as §1

Saccharomyces cerevisiae [9] = assay: checkerboard drug interaction (FICI, MICc); format: cell-based; design: INH MICc / INH MICc (ITR:INH) / INH MICc (KET:INH) / INH MICc (FLC:INH): unit not given beside the values;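 note: simplified diagonal checkerboard screen pairing antifungals with FPPS inhibitors, FICI calculated under the Loewe additivity model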
Cryptococcus neoformans [10] = assay: MIC/MFC broth microdilution (CLSI); details: Cryptococcus neoformans;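 note: susceptibility testing followed the CLSI M27-Ed4 broth microdilution document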
Procedure: as §1

eight fungal species [11] = assay: MIC/MFC summary across the eight fungal species of Table 1; format: cell-based
Procedure: The antifungal activity of these compounds was evaluated according to CLSI guidelines ([16]).

HEK-293T cells = assay: MTT reduction cytotoxicity assay; format: cell-based; details: Homo sapiens, HEK-293T, 72 h, MTT, 72 h
Candida albicans [12] = assay: MIC/MFC broth microdilution (CLSI); format: cell-based; details: Candida albicans SC5314
Procedure: as §1

Candida albicans [13] = assay: checkerboard drug interaction (FICI, MICc);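 for all read-outs here: antifungal plus FPPS inhibitor combinations on Candida albicans tested by a simplified diagonal checkerboard screen, with FICI calculated under the Loewe additivity model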; format: cell-based; details: C. albicans; for INH FD (MIC-MICc fold decrease): fold decrease of inhibitor MIC
Procedure: as §2

Trichophyton rubrum [14] = assay: checkerboard drug interaction (FICI, MICc);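 note: simplified diagonal checkerboard screen pairing azole antifungals with FPPS inhibitors, FICI calculated under the Loewe additivity model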; format: cell-based; details: T. rubrum
Procedure: as §2

[15] = test system: Cryptococcus deuterogattii; assay: checkerboard drug interaction (FICI, MICc);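 for all read-outs here: simplified diagonal checkerboard screen pairing antifungal drugs with FPPS inhibitors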; format: cell-based; details: C. deuterogattii; for INH FD (MIC-MICc fold decrease): fold decrease of inhibitor MIC
Procedure: as §2

Cryptococcus neoformans [16] = assay: checkerboard drug interaction (FICI, MICc);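 for all read-outs here: antifungal plus FPPS inhibitor pairs tested against Cryptococcus neoformans by simplified diagonal checkerboard screening, FICI computed under the Loewe additivity model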; format: cell-based; details: C. neoformans; for INH FD (MIC-MICc fold decrease): fold decrease of inhibitor MIC
Procedure: as §2

Aspergillus flavus [17] = assay: MIC/MFC broth microdilution (CLSI); details: ATCC204304
Procedure: as §1

Aspergillus flavus [18] = assay: checkerboard drug interaction (FICI, MICc);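 note: simplified diagonal checkerboard screen pairing azole antifungals with FPPS inhibitors, FICI calculated under the Loewe additivity model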; format: cell-based; design: INH MICc (KET:INH) / INH MICc (FLC:INH): unit not given beside the values; details: A. flavus
[19] = FLC:INH combination, MIC of the inhibitor in combination with FLC
[20] = FLC:INH combination, fold decrease of FLC MIC
[21] = ITR:INH combination, MIC of the inhibitor in combination with ITR
[22] = ITR:INH combination, fold decrease of ITR MIC
[23] = KET:INH combination, MIC of the inhibitor in combination with KET
[24] = KET:INH combination, fold decrease of KET MIC
[25] = Fractional Inhibitory Concentration Index, fluconazole + inhibitor
[26] = Fractional Inhibitory Concentration Index, itraconazole + inhibitor
[27] = Fractional Inhibitory Concentration Index, ketoconazole + inhibitor
[28] = MIC of the inhibitor in combination with fluconazole
[29] = MIC of the inhibitor in combination with itraconazole
[30] = MIC of the inhibitor in combination with ketoconazole
[31] = MIC-MICc fold decrease of fluconazole, negative = increase
[32] = MIC-MICc fold decrease of itraconazole, negative = increase
[33] = MIC-MICc fold decrease of ketoconazole, negative = increase
[34] = MIC-MICc fold decrease of the inhibitor, with fluconazole
[35] = MIC-MICc fold decrease of the inhibitor, with itraconazole
[36] = MIC-MICc fold decrease of the inhibitor, with ketoconazole

## CCCCCCCCCCCCN1CCC[C@H]1C(=O)N[C@@H](CC(=O)OC)C(=O)OC [dmPLA12]
Eight fungal species [1]
  GM fungal MICc: 11.3
Candida glabrata [2]
  MFC: > 128 µg/mL
  MIC: > 128 µg/mL
Candida glabrata [3]; FLC:INH combination
  FICI: 1
  INH FD (MIC-MICc fold decrease): 2
Candida glabrata [3]; [19]
  INH MICc: 8
Candida glabrata [3]; [20]
  FLC FD (MIC-MICc fold decrease): 2
Candida glabrata [3]; ITR:INH combination
  FICI: 0.38
  INH FD (MIC-MICc fold decrease): 8
Candida glabrata [3]; [21]
  INH MICc: 2
Candida glabrata [3]; [22]
  ITR FD (MIC-MICc fold decrease): 4
Candida glabrata [3]; KET:INH combination
  FICI: 0.75
  INH FD (MIC-MICc fold decrease): 4
Candida glabrata [3]; [23]
  INH MICc: 4
Candida glabrata [3]; [24]
  KET FD (MIC-MICc fold decrease): 2
Trichophyton rubrum [4]
  MFC: > 128 µg/mL
  MIC: 16 µg/mL (≈ 37.5 µM)
[5]
  MFC: 8 µg/mL (≈ 18.8 µM)
  MIC: 8 µg/mL (≈ 18.8 µM)
Aspergillus fumigatus [6]; [25]
  FICI (FLC:INH): 1.5
Aspergillus fumigatus [6]; [26]
  FICI (ITR:INH): 0.52
Aspergillus fumigatus [6]; [27]
  FICI (KET:INH): 1
Aspergillus fumigatus [6]; [28]
  INH MICc (FLC:INH): 128
Aspergillus fumigatus [6]; [29]
  INH MICc (ITR:INH): 2
Aspergillus fumigatus [6]; [30]
  INH MICc (KET:INH): 64
Aspergillus fumigatus [6]; [31]
  FLC FD (FLC:INH): 2
Aspergillus fumigatus [6]; [32]
  ITR FD (ITR:INH): 2
Aspergillus fumigatus [6]; [33]
  KET FD (KET:INH): 2
Aspergillus fumigatus [6]; [34]
  INH FD (FLC:INH): 1
Aspergillus fumigatus [6]; [35]
  INH FD (ITR:INH): 64
Aspergillus fumigatus [6]; [36]
  INH FD (KET:INH): 2
Aspergillus fumigatus [7]
  MFC: > 128 µg/mL
  MIC: 32 µg/mL (≈ 75 µM)
Saccharomyces cerevisiae [8]
  MFC: 4 µg/mL (≈ 9.38 µM)
  MIC: 4 µg/mL (≈ 9.38 µM)
Saccharomyces cerevisiae [9]; [25]
  FICI (FLC:INH): 0.75
Saccharomyces cerevisiae [9]; [26]
  FICI (ITR:INH): 0.75
Saccharomyces cerevisiae [9]; [27]
  FICI (KET:INH): 0.38
Saccharomyces cerevisiae [9]; [28]
  INH MICc (FLC:INH): 2
Saccharomyces cerevisiae [9]; [29]
  INH MICc (ITR:INH): 1
Saccharomyces cerevisiae [9]; [30]
  INH MICc (KET:INH): 1
Saccharomyces cerevisiae [9]; [31]
  FLC FD (FLC:INH): 4
Saccharomyces cerevisiae [9]; [32]
  ITR FD (ITR:INH): 2
Saccharomyces cerevisiae [9]; [33]
  KET FD (KET:INH): 8
Saccharomyces cerevisiae [9]; [34]
  INH FD (FLC:INH): 2
Saccharomyces cerevisiae [9]; [35]
  INH FD (ITR:INH): 4
Saccharomyces cerevisiae [9]; [36]
  INH FD (KET:INH): 4
Cryptococcus neoformans [10]
  MFC: 16 µg/mL (≈ 37.5 µM)
  MIC: 16 µg/mL (≈ 37.5 µM)
Eight fungal species [11]; across eight species, read-out: Geometric mean MFC
  MFC: 69.8 µg/mL (≈ 164 µM)
Eight fungal species [11]; geometric mean across eight species, read-out: GM fungal MIC
  MIC: 38.1 µg/mL (≈ 89.3 µM)
Eight fungal species [11]; read-out: Geometric mean MIC
  MIC: 38.1 µg/mL (≈ 89.3 µM)
HEK-293T cells; HEK-293T cells, read-out: IC50
  IC50: 2.01 µg/mL (≈ 4.72 µM)
HEK-293T cells; read-out: HEK IC50
  IC50: 2.01 µg/mL (≈ 4.72 µM)
Candida albicans [12]
  MFC: > 128 µg/mL
  MIC: > 128 µg/mL
Candida albicans [13]; FLC:INH combination
  FICI: 1.06
  INH FD (MIC-MICc fold decrease): 16
Candida albicans [13]; [19]
  INH MICc: 8
Candida albicans [13]; [20]
  FLC FD (MIC-MICc fold decrease): 1
Candida albicans [13]; ITR:INH combination
  FICI: ≥4
  INH FD (MIC-MICc fold decrease): 4
Candida albicans [13]; [21]
  INH MICc: 32
Candida albicans [13]; [22]
  ITR FD (MIC-MICc fold decrease): -4
Candida albicans [13]; KET:INH combination
  FICI: 2.13
  INH FD (MIC-MICc fold decrease): 8
Candida albicans [13]; [23]
  INH MICc: 16
Candida albicans [13]; [24]
  KET FD (MIC-MICc fold decrease): -2
Trichophyton rubrum [14]; [25]
  FICI (FLC:INH): 1.13
Trichophyton rubrum [14]; [26]
  FICI (ITR:INH): 1.06
Trichophyton rubrum [14]; [27]
  FICI (KET:INH): 1.13
Trichophyton rubrum [14]; [28]
  INH MICc (FLC:INH): 16
Trichophyton rubrum [14]; [29]
  INH MICc (ITR:INH): 16
Trichophyton rubrum [14]; [30]
  INH MICc (KET:INH): 16
Trichophyton rubrum [14]; [31]
  FLC FD (FLC:INH): 8
Trichophyton rubrum [14]; [32]
  ITR FD (ITR:INH): 16
Trichophyton rubrum [14]; [33]
  KET FD (KET:INH): 8
Trichophyton rubrum [14]; [34]
  INH FD (FLC:INH): 1
Trichophyton rubrum [14]; [35]
  INH FD (ITR:INH): 1
Trichophyton rubrum [14]; [36]
  INH FD (KET:INH): 1
[15]; FLC:INH combination
  FICI: 0.38
  INH FD (MIC-MICc fold decrease): 8
[15]; [19]
  INH MICc: 16
[15]; [20]
  FLC FD (MIC-MICc fold decrease): 4
[15]; ITR:INH combination
  FICI: 0.63
  INH FD (MIC-MICc fold decrease): 8
[15]; [21]
  INH MICc: 16
[15]; [22]
  ITR FD (MIC-MICc fold decrease): 2
[15]; KET:INH combination
  FICI: 0.19
  INH FD (MIC-MICc fold decrease): 8
[15]; [23]
  INH MICc: 16
[15]; [24]
  KET FD (MIC-MICc fold decrease): 16
Cryptococcus neoformans [16]; FLC:INH combination
  FICI: 3
  INH FD (MIC-MICc fold decrease): -2
Cryptococcus neoformans [16]; [19]
  INH MICc: 32
Cryptococcus neoformans [16]; [20]
  FLC FD (MIC-MICc fold decrease): 1
Cryptococcus neoformans [16]; ITR:INH combination
  FICI: 1.5
  INH FD (MIC-MICc fold decrease): 1
Cryptococcus neoformans [16]; [21]
  INH MICc: 16
Cryptococcus neoformans [16]; [22]
  ITR FD (MIC-MICc fold decrease): 2
Cryptococcus neoformans [16]; KET:INH combination
  FICI: 0.75
  INH FD (MIC-MICc fold decrease): 2
Cryptococcus neoformans [16]; [23]
  INH MICc: 8
Cryptococcus neoformans [16]; [24]
  KET FD (MIC-MICc fold decrease): 4
Aspergillus flavus [17]
  MFC: > 128 µg/mL
  MIC: > 128 µg/mL
Aspergillus flavus [18]; [25]
  FICI (FLC:INH): 1.5
Aspergillus flavus [18]; [26]
  FICI (ITR:INH): 0.5
Aspergillus flavus [18]; [27]
  FICI (KET:INH): 0.52
Aspergillus flavus [18]; [28]
  INH MICc (FLC:INH): 128
Aspergillus flavus [18]; [29]
  INH MICc (ITR:INH): 64
Aspergillus flavus [18]; [30]
  INH MICc (KET:INH): 4
Aspergillus flavus [18]; [31]
  FLC FD (FLC:INH): 1
Aspergillus flavus [18]; [32]
  ITR FD (ITR:INH): 4
Aspergillus flavus [18]; [33]
  KET FD (KET:INH): 2
Aspergillus flavus [18]; [34]
  INH FD (FLC:INH): 2
Aspergillus flavus [18]; [35]
  INH FD (ITR:INH): 4
Aspergillus flavus [18]; [36]
  INH FD (KET:INH): 64

Source: paper PMC12892976, “Alkylation-based optimization of antifungal FPPS inhibitors yields a potent, broad-spectrum lipophilic zoledronate derivative” (mBio, 2025)
